The target in data set [1] is T1, Carnitine O-palmitoyltransferase 1, muscle isoform (Homo sapiens, UniProt Q92523).
T1 sequence (Q92523 whole entry): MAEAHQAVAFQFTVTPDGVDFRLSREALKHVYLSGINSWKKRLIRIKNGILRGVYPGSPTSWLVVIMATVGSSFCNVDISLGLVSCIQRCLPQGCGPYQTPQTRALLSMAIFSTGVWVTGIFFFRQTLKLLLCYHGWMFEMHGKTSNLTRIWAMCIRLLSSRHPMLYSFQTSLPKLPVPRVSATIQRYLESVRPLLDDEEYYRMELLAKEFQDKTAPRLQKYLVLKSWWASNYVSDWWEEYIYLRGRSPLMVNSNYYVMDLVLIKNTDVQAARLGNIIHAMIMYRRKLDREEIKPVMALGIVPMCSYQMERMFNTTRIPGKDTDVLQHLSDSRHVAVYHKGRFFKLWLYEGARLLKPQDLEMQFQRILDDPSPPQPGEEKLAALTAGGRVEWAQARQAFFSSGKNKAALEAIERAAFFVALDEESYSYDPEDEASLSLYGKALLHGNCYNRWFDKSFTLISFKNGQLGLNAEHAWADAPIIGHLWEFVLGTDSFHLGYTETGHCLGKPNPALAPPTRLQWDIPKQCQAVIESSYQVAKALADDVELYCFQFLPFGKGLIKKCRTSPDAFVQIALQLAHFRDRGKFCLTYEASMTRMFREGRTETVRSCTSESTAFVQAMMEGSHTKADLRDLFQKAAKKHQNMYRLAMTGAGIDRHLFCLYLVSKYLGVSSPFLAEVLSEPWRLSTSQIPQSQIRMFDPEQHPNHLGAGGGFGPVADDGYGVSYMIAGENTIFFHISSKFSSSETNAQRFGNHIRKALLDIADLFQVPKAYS
The data set is described as follows: SUPPLEMENTARY: Inhibition of Carnitine palmitoyltransferase 1, muscle isoform. The arrangement: species or system Muscle tissue.

The target in data set [2] is T2, Carnitine O-palmitoyltransferase 2, mitochondrial (Rattus norvegicus, UniProt P18886).
T2 sequence (P18886 whole entry): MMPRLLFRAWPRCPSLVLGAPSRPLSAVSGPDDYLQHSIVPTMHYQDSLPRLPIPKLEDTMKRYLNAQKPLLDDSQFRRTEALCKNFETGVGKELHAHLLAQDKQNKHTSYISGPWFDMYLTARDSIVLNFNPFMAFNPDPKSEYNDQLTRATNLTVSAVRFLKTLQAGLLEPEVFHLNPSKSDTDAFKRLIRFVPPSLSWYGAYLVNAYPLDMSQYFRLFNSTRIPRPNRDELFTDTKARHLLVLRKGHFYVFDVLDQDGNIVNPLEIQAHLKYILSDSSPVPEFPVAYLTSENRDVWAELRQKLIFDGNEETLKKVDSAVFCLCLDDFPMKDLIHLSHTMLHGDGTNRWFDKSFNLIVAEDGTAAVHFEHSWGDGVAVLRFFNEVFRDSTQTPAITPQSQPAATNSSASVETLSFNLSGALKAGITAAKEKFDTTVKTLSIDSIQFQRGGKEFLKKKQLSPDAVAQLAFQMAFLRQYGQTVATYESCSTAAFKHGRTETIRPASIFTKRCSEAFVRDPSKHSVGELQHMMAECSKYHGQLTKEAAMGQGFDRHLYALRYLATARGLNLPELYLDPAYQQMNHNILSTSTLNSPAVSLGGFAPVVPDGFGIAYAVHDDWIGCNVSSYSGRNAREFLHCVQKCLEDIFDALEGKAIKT
The data set is described as follows: (§1) SUPPLEMENTARY: Inhibition of Carnitine palmitoyltransferase 2.

Data set [3] has as its target T3, Carnitine O-palmitoyltransferase 1, liver isoform (Rattus norvegicus, UniProt P32198).
T3 sequence (P32198 whole entry): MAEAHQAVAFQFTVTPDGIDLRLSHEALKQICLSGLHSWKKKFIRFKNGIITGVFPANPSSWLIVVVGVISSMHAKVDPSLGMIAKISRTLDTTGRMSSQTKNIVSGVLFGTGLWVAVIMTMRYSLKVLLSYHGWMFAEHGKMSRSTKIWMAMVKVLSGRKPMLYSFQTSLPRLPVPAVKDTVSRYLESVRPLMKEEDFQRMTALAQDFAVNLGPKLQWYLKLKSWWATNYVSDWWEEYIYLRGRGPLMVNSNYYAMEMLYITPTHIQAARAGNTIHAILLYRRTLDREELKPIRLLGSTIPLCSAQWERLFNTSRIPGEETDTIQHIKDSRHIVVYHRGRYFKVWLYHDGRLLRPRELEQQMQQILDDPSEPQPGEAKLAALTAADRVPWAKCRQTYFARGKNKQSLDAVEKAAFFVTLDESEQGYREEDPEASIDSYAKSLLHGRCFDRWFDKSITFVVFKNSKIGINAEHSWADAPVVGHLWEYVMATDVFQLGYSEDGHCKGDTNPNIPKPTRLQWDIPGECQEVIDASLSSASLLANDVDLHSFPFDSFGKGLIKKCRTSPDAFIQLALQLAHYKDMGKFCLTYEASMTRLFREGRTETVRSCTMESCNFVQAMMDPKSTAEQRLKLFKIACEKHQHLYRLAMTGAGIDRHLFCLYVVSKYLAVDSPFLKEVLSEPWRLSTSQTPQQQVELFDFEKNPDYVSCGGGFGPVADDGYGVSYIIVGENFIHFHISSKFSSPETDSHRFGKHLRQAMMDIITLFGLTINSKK
The experiment in a line: (§2) SUPPLEMENTARY: Inhibition of Carnitine palmitoyltransferase 1, liver isoform.

Data set [4] is described as follows: SUPPLEMENTARY: Lyophilisation Solubility Assay (LYSA). In kind it is physicochemical. The conditions noted are these: read-out: Kinetic_solubility.
The nature of data set [5]: SUPPLEMENTARY: PAMPA permeability assay. In kind it is physicochemical. The conditions noted are these: read-out: Permeability.
Data set [6] deals with T4, Carnitine O-palmitoyltransferase 2, mitochondrial (Homo sapiens, UniProt P23786).
T4 sequence (P23786 whole entry): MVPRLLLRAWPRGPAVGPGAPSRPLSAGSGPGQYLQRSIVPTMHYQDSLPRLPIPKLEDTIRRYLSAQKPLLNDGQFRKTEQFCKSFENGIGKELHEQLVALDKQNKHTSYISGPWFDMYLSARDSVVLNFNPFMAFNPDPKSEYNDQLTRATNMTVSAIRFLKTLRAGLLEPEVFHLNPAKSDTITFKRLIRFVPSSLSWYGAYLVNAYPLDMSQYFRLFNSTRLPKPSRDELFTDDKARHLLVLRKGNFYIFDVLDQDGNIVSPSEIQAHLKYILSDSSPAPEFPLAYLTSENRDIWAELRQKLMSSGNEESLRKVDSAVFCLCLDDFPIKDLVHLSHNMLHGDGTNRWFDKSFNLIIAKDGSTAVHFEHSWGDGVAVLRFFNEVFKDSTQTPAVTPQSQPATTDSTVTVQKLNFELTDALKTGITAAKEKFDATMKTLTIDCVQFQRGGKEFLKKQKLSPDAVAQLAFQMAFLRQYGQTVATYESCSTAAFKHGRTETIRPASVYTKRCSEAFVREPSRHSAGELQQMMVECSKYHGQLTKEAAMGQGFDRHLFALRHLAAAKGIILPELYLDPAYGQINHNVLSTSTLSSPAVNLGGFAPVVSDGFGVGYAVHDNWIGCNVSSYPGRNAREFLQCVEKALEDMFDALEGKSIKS
The description is as §1.

The target of data set [7] is T5, Carnitine O-palmitoyltransferase 1, liver isoform (Homo sapiens, UniProt P50416).
T5 sequence (P50416 whole entry): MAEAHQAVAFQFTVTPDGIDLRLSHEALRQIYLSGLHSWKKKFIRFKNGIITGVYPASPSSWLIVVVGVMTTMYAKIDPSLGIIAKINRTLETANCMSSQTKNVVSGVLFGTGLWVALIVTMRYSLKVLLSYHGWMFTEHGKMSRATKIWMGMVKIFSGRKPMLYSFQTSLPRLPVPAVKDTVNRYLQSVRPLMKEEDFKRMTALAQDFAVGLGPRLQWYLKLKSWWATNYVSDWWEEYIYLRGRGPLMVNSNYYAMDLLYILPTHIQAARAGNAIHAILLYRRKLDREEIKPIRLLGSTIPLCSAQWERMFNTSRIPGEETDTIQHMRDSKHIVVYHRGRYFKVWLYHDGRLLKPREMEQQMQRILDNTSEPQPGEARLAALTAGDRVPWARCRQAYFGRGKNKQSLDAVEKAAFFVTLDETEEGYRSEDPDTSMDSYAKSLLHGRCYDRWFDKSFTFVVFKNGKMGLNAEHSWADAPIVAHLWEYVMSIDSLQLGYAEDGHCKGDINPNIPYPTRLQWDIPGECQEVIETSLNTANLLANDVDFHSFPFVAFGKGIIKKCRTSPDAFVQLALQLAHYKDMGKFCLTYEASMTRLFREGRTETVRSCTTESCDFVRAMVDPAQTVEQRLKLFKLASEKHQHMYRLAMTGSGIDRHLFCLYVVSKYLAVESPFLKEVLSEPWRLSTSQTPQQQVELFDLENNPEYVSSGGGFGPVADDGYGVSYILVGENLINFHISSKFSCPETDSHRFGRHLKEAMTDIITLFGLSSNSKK
Described as §2.

Data on twelve compounds can be found in ChEMBL document CHEMBL3431459, “Roche carnitine palmitoyltransferase modulator screening data (supplementary data associated with the publication CHEMBL2216752)”.

Values after ≈ are worked out from the molar mass of the structure shown.

In the case of `COc1ccc(Cl)cc1S(=O)(=O)N1CCc2ccc(C(=O)Nc3ccc(C(=O)O)cc3)cc21`, the IC50 was more than 100000 nM in data set [1], 7820 nM in data set [2] and 55 nM in data set [3]. Further, in data set [4], the solubility kinetic came to 5 µg/mL (≈ 10.3 µM). The Papp in data set [5] amounted to 2.78 ×10⁻⁶ cm/s.
As for `COc1ccc(Cl)cc1S(=O)(=O)N1CCSc2ccc(C(=O)Nc3ccc(C(=O)O)cc3)cc21`, the IC50 in data set [1] is more than 100000 nM; in data set [6], more than 100000 nM; in data set [2], more than 100000 nM; in data set [7] it was 65.4 nM; in data set [3], 56.9 nM. The solubility kinetic in data set [4] came out at 4 µg/mL (≈ 7.71 µM).
`O=C(COc1ccccc1)N1CCCC[C@@H]1c1noc(C2C[C@@H]3CC[C@H]2C3)n1` (stereo partly specified): the IC50 was more than 100000 nM in data set [1]; 19900 nM in data set [6]; more than 100000 nM in data set [2]; 32.6 nM in data set [7]; 310 nM in data set [3]. Further, in data set [4], the solubility kinetic was less than 1 µg/mL.
For `COc1ccc(Cl)cc1S(=O)(=O)N1CCCc2ccc(C(=O)Nc3ccc(C(=O)O)cc3)cc21`, the IC50 in data set [1] stood at 5930 nM; in data set [6], 2130 nM; in data set [2], 2850 nM; in data set [7], 26.7 nM; in data set [3] it was 32.3 nM. Moreover, the solubility kinetic in data set [4] is 8 µg/mL (≈ 16 µM). Further, the Papp in data set [5] was found to be 3.2 ×10⁻⁶ cm/s.
Turning to `COc1ccc(Cl)cc1S(=O)(=O)N1CCOc2ccc(C(=O)Nc3ccc(C(=O)O)cc3)cc21`, the IC50 in data set [1] came out at 14800 nM; in data set [6], 26700 nM; in data set [2], 36600 nM; in data set [7], 40.1 nM; in data set [3], 35.4 nM. Also, in data set [4], the solubility kinetic was found to be 8 µg/mL (≈ 15.9 µM). Besides, in data set [5], the Papp was 2.7 ×10⁻⁶ cm/s.
Take `O=C(Nc1ccc(C(=O)O)c(F)c1)c1ccc2c(c1)N(S(=O)(=O)c1cc(Cl)cc(Cl)c1)CCC2`: the IC50 in data set [1] was 19600 nM; in data set [6], more than 100000 nM; in data set [2] it was more than 100000 nM; in data set [7] it was 111 nM; in data set [3], 53.4 nM. In addition, the solubility kinetic in data set [4] is 7 µg/mL (≈ 13.4 µM). Also, in data set [5], the Papp is 4.82 ×10⁻⁶ cm/s.
For the compound `O=C(COc1ccccc1)N1CCCCC1c1ncc(-c2cccc([N+](=O)[O-])c2)o1` (stereo unspecified), the IC50 in data set [1] was more than 100000 nM; in data set [6] it was 12800 nM; in data set [7] it was 243 nM; in data set [3] it was 237 nM. The solubility kinetic in data set [4] came out at 4 µg/mL (≈ 9.82 µM). Besides, the Papp in data set [5] was determined as 0.66 ×10⁻⁶ cm/s.
As to `O=C(COc1ccccc1)N1CCCC[C@@H]1c1nc(-c2cccc([N+](=O)[O-])n2)no1`, the IC50 in data set [1] is more than 100000 nM; in data set [6], 17200 nM; in data set [7], 254 nM; in data set [3] it was 760 nM. In addition, the solubility kinetic in data set [4] is 10 µg/mL (≈ 24.4 µM). Moreover, in data set [5], the Papp was found to be 5.48 ×10⁻⁶ cm/s.
For the compound `O=C([O-])c1cccc(-c2csc([C@H]3CCCCN3C(=O)COc3ccccc3)n2)c1.[Na+]`, the IC50 in data set [6] is 28700 nM; in data set [2] it was 49600 nM; in data set [7] it was 19.7 nM; in data set [3], 96.4 nM. Moreover, the solubility kinetic in data set [4] is more than 525 µg/mL. Further, the Papp in data set [5] is 3.55 ×10⁻⁶ cm/s.
`Cc1cc(C)cc(S(=O)(=O)c2n[nH]c3ccc(C(=O)Nc4ccccc4)cc23)c1`: the IC50 in data set [1] was more than 100000 nM; in data set [6], more than 100000 nM; in data set [2], more than 100000 nM; in data set [7] it was 221 nM. Also, in data set [4], the solubility kinetic was less than 1 µg/mL.
Turning to `COc1ccc(Cl)cc1S(=O)(=O)N(CCC(=O)O)c1cc(C(=O)Nc2ccccc2)cc2c1OCO2`, the IC50 in data set [1] is 2810 nM; in data set [6], more than 100000 nM; in data set [2] it was more than 100000 nM; in data set [7] it was 175 nM; in data set [3], 1720 nM.
For the compound `COc1ccc(Cl)cc1S(=O)(=O)N1CCOc2c(C(F)F)cc(C(=O)Nc3ccc(C(=O)O)cc3)cc21`, the IC50 is more than 100000 nM in data set [1]; 1440 nM in data set [6]; 16000 nM in data set [2]; 325 nM in data set [7]; 2910 nM in data set [3].
